Values of other authors as cited in US20250339386A1, “VITAMIN K2 FOR USE IN TREATMENT OF CORONARY ARTERY CALCIFICATION” (Region Syddanmark, priority 2022, published 2025).

Assays:
CAC progression = settings: asymptomatic older men and women 60-80 years, with recommended calcium and vitamin D
[1] = tested on: human monocyte-derived macrophages; settings: cells pretreated; dose response relationship
[2] = tested on: aortic valve calcification; settings: high-dose supplementation; male subjects with aortic valve calcification score above 300 arbitrary units

CC1=C(C/C=C(\C)CCC[C@H](C)CCC[C@H](C)CCCC(C)C)C(=O)c2ccccc2C1=O [vitamin K1, phylloquinone]
Progression of existing CAC (CAC progression): reduced the progression of existing CAC

CC(C)=CCC/C(C)=C/CC/C(C)=C/CC/C(C)=C/CC/C(C)=C/CC/C(C)=C/CC/C(C)=C/CC1=C(C)C(=O)c2ccccc2C1=O [menaquinone-7]
Cytokine release (TNF-α, IL-1α, IL-1β) [1]: inhibition of cytokine release

Menaquinone [vitamin K2]
Aortic valve calcification progression [2]: non-significantly decreased
